Here are results for 1 molecule from publication PMC8455565 (Scientific Reports, 2021).

A short description of data set [1]: Phase I pharmacokinetics in healthy volunteers. Type of data set: in vivo. Particulars: male, human, plasma, oral; after multiple doses, all dose levels (BID). The method, then: (§1) PK/PD data from 24 subjects who had received the drug BID among the 90 total subjects who participated in the MAD study were analyzed. Blood was collected on day 1 before drug administration and 1 h, 2 h, 4 h, and 12 h after drug administration. Blood samples were taken 3 days and 2 h after drug administration. Additional blood samples were taken on day 6 (5, 20, and 60 mg/kg), day 15 (40 mg/kg), day 17, and day 21 for PK/PD analysis.
After drug administration, whole blood was collected from CIA model rats and human subjects at the indicated times. Plasma was obtained by centrifugation at 12,000 rpm for 2 min and stored at − 20 °C until analysis.

The target in data set [2] is BTK (Homo sapiens, UniProt Q06187). Briefly: Phase I BTK occupancy (free BTK ELISA) in PBMCs of healthy volunteers. Type of data set: in vivo. Details: endogenous in cells; host or cells: PBMCs of healthy volunteers. The method, then: as §1
Chain of BTK (Q06187 whole entry): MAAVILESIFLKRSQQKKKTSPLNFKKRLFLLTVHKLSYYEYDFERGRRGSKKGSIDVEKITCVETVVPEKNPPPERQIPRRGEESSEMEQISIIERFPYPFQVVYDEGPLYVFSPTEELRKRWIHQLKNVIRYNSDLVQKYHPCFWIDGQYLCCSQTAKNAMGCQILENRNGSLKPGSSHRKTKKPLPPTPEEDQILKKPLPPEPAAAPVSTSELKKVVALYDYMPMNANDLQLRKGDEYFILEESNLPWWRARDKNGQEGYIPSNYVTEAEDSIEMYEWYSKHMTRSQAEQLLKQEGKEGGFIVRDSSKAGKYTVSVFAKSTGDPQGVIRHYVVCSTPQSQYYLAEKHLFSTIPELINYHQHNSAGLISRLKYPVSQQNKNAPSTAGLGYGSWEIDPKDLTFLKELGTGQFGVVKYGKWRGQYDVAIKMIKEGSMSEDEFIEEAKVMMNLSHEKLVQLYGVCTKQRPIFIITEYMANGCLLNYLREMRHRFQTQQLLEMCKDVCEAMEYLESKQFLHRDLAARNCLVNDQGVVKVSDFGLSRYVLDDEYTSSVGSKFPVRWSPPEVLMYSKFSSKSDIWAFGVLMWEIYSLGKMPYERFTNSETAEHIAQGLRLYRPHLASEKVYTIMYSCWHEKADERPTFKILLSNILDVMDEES
The BTK occupancy assay and analysis of BTK phosphorylation inhibition were performed as described previously. Briefly, isolated PBMCs were lysed with RIPA buffer (R0278, Sigma-Aldrich) containing 1 × protease/phosphatase inhibitor (1861281, Thermo Fisher Scientific) and EDTA (1861274, Thermo Fisher Scientific). The supernatants were collected by 10 min at 14,000 × g in microcentrifuge at 4 °C and biotinylated probe was added to bind free BTK for 1 h. Rabbit anti-BTK Ab (1:5000 in 1% BSA) bound the captured BTK/probe complex, and was detected with […] antibody conjugated with HRP then ultra-TMB solution was added to each well for the free BTK analysis. Analysis of free and total BTK levels for the phase I study was conducted by Cambridge Biomedical Inc. (MA, USA). BTK occupancy was calculated by taking the free BTK and total BTK results from a given donor and used the following formula: %BTKoccupancy=100%-FreeBTK/totalBTK×100.
(ELISA stands for enzyme-linked immunosorbent assay.)

For data set [3], the target named is T1, TEC (Homo sapiens, UniProt P42680).
T1 sequence (P42680 1-631): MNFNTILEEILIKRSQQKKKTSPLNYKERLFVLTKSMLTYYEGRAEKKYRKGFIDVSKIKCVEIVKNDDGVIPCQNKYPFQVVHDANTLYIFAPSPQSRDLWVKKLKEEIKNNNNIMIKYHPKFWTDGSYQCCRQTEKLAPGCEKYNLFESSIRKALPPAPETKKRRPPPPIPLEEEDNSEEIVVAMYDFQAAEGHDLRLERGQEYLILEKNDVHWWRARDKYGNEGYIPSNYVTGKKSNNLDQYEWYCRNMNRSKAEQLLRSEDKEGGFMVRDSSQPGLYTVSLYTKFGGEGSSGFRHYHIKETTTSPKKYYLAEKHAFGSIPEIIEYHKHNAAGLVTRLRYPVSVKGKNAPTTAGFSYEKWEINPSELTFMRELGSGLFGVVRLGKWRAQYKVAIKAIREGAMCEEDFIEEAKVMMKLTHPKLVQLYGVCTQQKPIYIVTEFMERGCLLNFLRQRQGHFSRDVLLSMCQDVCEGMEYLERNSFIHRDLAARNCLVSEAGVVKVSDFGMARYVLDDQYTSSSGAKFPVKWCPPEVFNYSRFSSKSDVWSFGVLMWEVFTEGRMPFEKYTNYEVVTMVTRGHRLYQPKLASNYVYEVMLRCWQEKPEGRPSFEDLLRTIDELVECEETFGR
As to the kind of experiment: Kinase biochemical assay (FRET), TEC. Particulars: read-out: inhibitory activity on TEC.

The subject of data set [4] is A431. Briefly: Cell growth inhibition in EGFR overexpressed A431. The class given is cell-based. Particulars: Homo sapiens, A-431; cellular level; read-out: IC50, cell growth inhibition in EGFR overexppressed A431.

SMILES strings stand for the structures.

The Tmax is the time from dosing to the highest level. The term inhibition denotes how much of the control response was suppressed. Lower therefore signals a weak effect. With `C=CC(=O)Nc1cccc(Oc2nc(Nc3ccc(N4CCN(C)CC4)cc3)nc3ccoc23)c1` [Poseltinib], the Tmax in data set [1] lay in the range of 1 to 2 h. Also, the “time of maximum BTK inhibition” value is given as 12 h in data set [2] (40 mg) and 4 h in data set [2] (60 mg). The BTK occupancy result in data set [2] (40 mg dosing, maintained up to 48 h after the first dose) is given as “More than 80%”. The molecule further returned a BTK inhibition in data set [2] (4 h after the first dose, doses of 40 mg and higher) of over 90%. This molecule also yielded an inhibition at 20 mg in data set [2] (human, steady state (120 h), doses of 20 mg bid and higher) of over 90%. The IC50 in data set [3] is under 10 nM; in data set [4] it was over 500 nM.
